# System: Candida albicans SC5314
# Experiment: Susceptibility of Candida albicans, broth microdilution method
# Assay type: cell-based
# Settings: 24 hours, replicate 1
# Procedure: Susceptibility of Candida albicans SC5314 to milk EVs and milk EVs loaded with Amphotericin B (AmpB) was performed by the broth microdilution method, using RPMI-1640 medium and MOPS buffer in a concentration range from 200 nM and 0.39 nM for AmpB loaded EVs and equal particles/mL of unloaded EVs. AmpB alone was also tested at concentrations from 8 µM to 15.12 nM.
# The broth micro dilution test is performed using sterile round bottomed 96 well microtiter plates. 50 μL of 1×PBS at pH 7.4 is added to Rows 1 to Row 7, except for Column 1 of Row 3 to Row 7. 100 μL of EVs (BMEV, BMEV-AmpB, GMEV and GMEV-AmpB) at 2× desired concentrations is added to Rows 4 to Row 7 of Column 1. 100 μL of AmpB at 2× desired concentration (i.e. 16 μM) is added to Row 3 of Column 1. 2-fold dilutions were performed by transferring 50 μL from Column 1 to Column 10 of Rows 3 to 7, and homogenised to ensure proper dilution of the compound by half. Row 1 was used as a blank for spectrophotometric readings and Row 2 is used as a growth control. After the plates are prepared, 2× inoculum concentration are prepared with a total cell concentration of 1e+3 to 5e+3 CFU/mL prepared in RPMI 1640 media (with glutamine, without bicarbonate, and with phenol red as a pH indicator) in MOPS according to CLSI media preparation guidelines. Each well of the microtiter plate was inoculated with 50 μL of the 2× inoculum to yield a final cell concentration of 0.5e+3 to 2.5e+3 CFU/mL in the wells. After inoculation, the plates are incubated at 35° C. for 24 hours. Post-incubation, the plates are read at 600 nm using the Thermo Scientific Multiskan Go, and data was recorded. Agitation prior to reading the plate will help with accurate readings.
# 10.4 g powdered RPMI 1640 medium (with glutamine and phenol red, without bicarbonate); 34.53 g MOPS (3-[N-morpholino] propanesulfonic acid) buffer.
# Dissolve powdered medium in 900 mL distilled H2O. Add MOPS (final concentration of 0.165 mol/L) and stir until dissolved. While stirring, adjust the pH to 7.0 at 25° C. using 1 mol/L sodium hydroxide.
# Add additional water to bring medium to a final volume of 1 L. Filter sterilize and store at 4° C. until use.
# The steps for preparation of inoculum are as follows: • I. Candida albicans SC5314 was subcultured from sterile vials onto Sabouraud dextrose agar or Potato Dextrose agar and passaged to ensure purity and viability. The incubation temperature throughout was 35° C. • II. The inoculum was prepared by picking five colonies of ca. 1 mm in diameter from 24-hour old culture. The colonies were suspended in 1 mL of sterile 1×PBS at pH 7.4. A 10-fold dilution was prepared in PBS. 10 μL of the diluted inoculum with equal volume of Trypan Blue was mixed and counted using a haemocytometer. • III. The suspension should be vortexed for 15 seconds and the cell density adjusted by adding sufficient sterile 1×RPMI-1640 to yield a cell concentration of 1e+3 to 5e+3 CFU/mL.
smiles,measurement,setting,value
"C[C@@H]1[C@H](O)[C@@H](C)/C=C/C=C/C=C/C=C/C=C/C=C/C=C/[C@H](O[C@@H]2O[C@H](C)[C@@H](O)[C@H](N)[C@@H]2O)C[C@@H]2O[C@](O)(C[C@@H](O)C[C@@H](O)[C@H](O)CC[C@@H](O)C[C@@H](O)CC(=O)O[C@H]1C)C[C@H](O)[C@H]2C(=O)O [AmpB, Amphotericin B]",Abs (read at 600 nm),AmpB concentration 15.12 nM,0.13
same,Abs (read at 600 nm),AmpB concentration 31.25 nM,0.15
same,Abs (read at 600 nm),AmpB concentration 62.5 nM,0.13
same,Abs (read at 600 nm),AmpB concentration 125 nM,0.15
same,Abs (read at 600 nm),AmpB concentration 250 nM,0.13
same,Abs (read at 600 nm),AmpB concentration 500 nM,0.08
same,Abs (read at 600 nm),AmpB concentration 1 μM,0.08
same,Abs (read at 600 nm),AmpB concentration 2 μM,0.00
same,Abs (read at 600 nm),AmpB concentration 4 μM,0.00
same,Abs (read at 600 nm),AmpB concentration 8 μM,0.00

# — patent US20250295600A1, “EXTRACELLULAR VESICLES DERIVED FROM MILK AND PROCESS FOR ISOLATING THE SAME” (EVOBIOTIX SA, priority 2021, published 2025)
